From US7531573B2 (priority 1994, dated 2009)
Like-named read-outs stand apart in the source and are kept apart here.

What was measured:
[1] = target: Gardos channel of erythrocytes (Homo sapiens, UniProt O15554); test: cell-based; settings: for inhibition at 10 µM: read-out: Gardos Channel % Inhibition
[2] = system: NIH 3T3 mouse fibroblast cells; test: Mitogen-induced cell proliferation; format: cell-based; settings: for inhibition at 10 µM: NIH3T3, read-out: Mitogen-induced cell proliferation % Inhibition; for IC50: NIH3T3, read-out: Mitogen-induced cell proliferation IC50
Description: Other cell lines, e.g., cancer cells, endothelial cells and fibroblasts, as well as many others, may be used in the cell proliferation assay. Selection of a particular cell line will depend in part on the desired application, and is well within the capabilities of an ordinarily skilled artisan.

[3] = erythrocytes, read-out: Gardos Channel IC50

Sequence of Gardos channel of erythrocytes (O15554 whole entry): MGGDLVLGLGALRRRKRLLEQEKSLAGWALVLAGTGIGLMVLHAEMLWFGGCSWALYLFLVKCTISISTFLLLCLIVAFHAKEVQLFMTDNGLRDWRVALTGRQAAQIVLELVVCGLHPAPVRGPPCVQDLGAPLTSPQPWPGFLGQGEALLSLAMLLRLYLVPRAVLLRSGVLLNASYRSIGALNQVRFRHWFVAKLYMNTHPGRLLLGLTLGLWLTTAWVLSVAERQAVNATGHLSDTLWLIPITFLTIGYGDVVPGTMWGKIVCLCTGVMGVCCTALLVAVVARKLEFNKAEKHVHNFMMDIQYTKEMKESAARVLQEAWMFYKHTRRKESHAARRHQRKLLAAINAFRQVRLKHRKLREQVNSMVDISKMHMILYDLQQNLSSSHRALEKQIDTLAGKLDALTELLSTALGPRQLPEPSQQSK

Row | SMILES | IC50 [1] | inhibition at 10 µM [1] | inhibition at 10 µM [2] | IC50 [2] | IC50 [1, 3]
1 | OC(c1ccccc1)(c1ccccc1)c1ccccc1 [Compound 1] | 755 nM | 97% | – | – | –
2 | ClC(c1ccccc1)(c1ccccc1)c1ccccc1 [Compound 2] | 459 nM | 99.4% | 64.8% | – | –
3 | c1ccc(C(c2ccccc2)c2ccccc2)cc1 [Compound 3] | 1200 nM | 86.6% | 53% | – | –
4 | c1ccc(C(c2ccccc2)c2ccncc2)cc1 [Compound 4] | 2860 nM | 91% | 37.7% | – | –
5 | NC(c1ccccc1)(c1ccccc1)c1ccccc1 [Compound 5] | 1650 nM | 86% | 66% | 1280 nM | –
6 | c1ccc(C(c2ccccc2)(c2ccccc2)[n+]2ccccc2)cc1 [Compound 7] | – | 98.2% | 6.6% | – | 410 nM
7 | c1ccc(N(c2ccccc2)c2ccccc2)cc1 [Compound 8] | – | 95.6% | 28.3% | – | 2850 nM
8 | O=C(O)CC(c1ccccc1)(c1ccccc1)c1ccccc1 [Compound 9] | 21800 nM | 77.2% | 32.7% | – | –
9 | C1=CC(=P(c2ccccc2)(c2ccccc2)c2ccccc2)C=C1 [Compound 10] | – | 89.7% | 25.5% | 4800 nM | 957 nM
10 | SC(c1ccccc1)(c1ccccc1)c1ccccc1 [Compound 11] | – | 99.2% | 52% | 2310 nM | 2160 nM
11 | BrC(c1ccccc1)(c1ccccc1)c1ccccc1 [Compound 12] | 252 nM | 99% | 72.8% | 1700 nM | –
12 | N#CC(c1ccccc1)(c1ccccc1)c1ccccc1 [Compound 13] | – | 72.4% | 87% | 920 nM | 133 nM
13 | N#CC(c1ccccc1)(c1ccccc1)c1ccccc1Cl [Compound 14, (2-chlorophenyl)-diphenylacetonitrile] | 48 nM | 98.8% | 95.8% | 2200 nM | –
14 | NC(=O)CC(c1ccccc1)(c1ccccc1)c1ccccc1 [Compound 18] | – | 98% | 76.1% | 10000 nM | 431 nM
15 | N#CCC(c1ccccc1)(c1ccccc1)c1ccccc1 [Compound 19] | – | 97% | 80% | 5800 nM | 1130 nM
16 | OC(c1ccccc1)(c1ccccc1)c1ccccc1F [Compound 20] | 795 nM | 98.1% | 39% | – | –
17 | OC(c1ccccc1)(c1ccccc1)c1ccc(-c2ccccc2)cc1 [Compound 21] | 725 nM | 97.3% | 99% | 2800 nM | –
18 | OCCC(c1ccccc1)(c1ccccc1)c1ccccc1 [Compound 22] | 302 nM | 82% | 85% | 6800 nM | –
19 | O=C1CC[C@@H](COC(c2ccccc2)(c2ccccc2)c2ccccc2)N1 [Compound 23] | – | 97.9% | 77% | 3800 nM | 216 nM

Row | SMILES | IC50 [1] | inhibition at 10 µM [1] | inhibition at 10 µM [2] | IC50 [2] | IC50 [1, 3]
20 | O=C1CC[C@@H](COC(c2ccccc2)(c2ccccc2)c2ccccc2)O1 [Compound 24] | – | 97.9% | 29% | – | 135 nM
21 | O=C(O)CNC(c1ccccc1)(c1ccccc1)c1ccccc1 [Compound 25] | – | 34.4% | 70% | – | –
22 | N#CCC(c1ccc(Cl)cc1)(c1ccc(Cl)cc1)c1ccc(Cl)cc1 [Compound 26] | – | 10% | 99% | 1300 nM | –
23 | Fc1ccccc1C(c1ccccc1)c1ccccc1 [Compound 27] | – | 100% | 99% | 3000 nM | 449 nM
24 | O=C(O)C(Cc1ccc2ccccc2c1)C(c1ccccc1)(c1ccccc1)c1ccccc1 (centres unmarked) [Compound 28] | – | 98% | 99% | 700 nM | 5220 nM
25 | NCCC(c1ccccc1)(c1ccccc1)c1ccccc1 [Compound 29] | – | 100% | 99% | 3100 nM | 649 nM
26 | CCOC(=O)C(C(=O)OCC)C(c1ccccc1)(c1ccccc1)c1ccccc1 [Compound 31] | 445 nM | 99% | 89% | 2600 nM | –
27 | CCOC(=O)C(C(=O)OCC)C(c1ccccc1)(c1ccccc1)c1ccccc1Cl [Compound 33] | 125 nM | 100% | 45% | – | –
28 | NOC(c1ccccc1)(c1ccccc1)c1ccccc1 [Compound 34] | – | 96.3% | 68% | – | 939 nM
29 | OCC(c1ccccc1)(c1ccccc1)c1ccccc1 [Compound 35] | 430 nM | 95.8% | 38% | – | –
30 | CC(=O)C(c1ccccc1)(c1ccccc1)c1ccccc1 [Compound 37] | – | 100% | 31% | – | 57 nM
31 | O=CCC(c1ccccc1)(c1ccccc1)c1ccccc1 [Compound 38] | – | 92% | 99% | 800 to 2300 nM | 220 nM
32 | O=C(O)CC(c1ccc(Cl)cc1)(c1ccc(Cl)cc1)c1ccc(Cl)cc1 [Compound 39] | – | 97% | 99% | 3300 nM | 1680 nM
33 | CON(C)C(=O)CC(c1ccc(Cl)cc1)(c1ccc(Cl)cc1)c1ccc(Cl)cc1 [Compound 40] | – | – | 99% | 1000 to 1200 nM | –
34 | NCCC(c1ccc(Cl)cc1)(c1ccc(Cl)cc1)c1ccc(Cl)cc1 [Compound 41] | – | 97% | 99% | 1400 nM | 2070 nM
35 | Oc1ccccc1C(O)(c1ccccc1)c1ccccc1 [Compound 42] | 615 nM | 99% | 99% | 3300 nM | –
36 | OC(c1ccccc1)(c1ccccc1)c1ccc(Cl)cc1 [Compound 43] | 61 nM | 99% | 99% | 800 nM | –
37 | C#C[Si](c1ccccc1)(c1ccccc1)c1ccccc1 [Compound 44] | 388 nM | 79.4% | 82% | – | –
38 | COC(=O)c1ccccc1C(c1ccccc1)c1ccccc1 [Compound 45] | – | 98% | 99% | 800 nM | 320 nM

Row | SMILES | IC50 [1] | inhibition at 10 µM [1] | inhibition at 10 µM [2] | IC50 [2] | IC50 [1, 3]
39 | CCOC(c1ccccc1)(c1ccccc1)c1ccccc1 [Compound 46] | – | 99.5% | 99% | 2200 nM | 76 nM
40 | CCOC(=O)C(c1ccccc1)(c1ccccc1)c1ccccc1 [Compound 47] | – | 100% | 99% | 800 nM | 193 nM
41 | OC(C#Cc1ccccc1)(c1ccccc1)c1ccccc1 [Compound 48] | 1290 nM | 100% | 98% | 400 nM | –
42 | N#CC(c1ccccc1)(c1ccccc1)c1ccc([N+](=O)[O-])cc1Cl [Compound 49] | – | 88% | 94% | 300 nM | 336 nM
43 | OC(c1ccccc1)(c1ccc(Br)cc1)c1ccc(Br)cc1 [Compound 50] | 288 nM | 100% | 99% | 500 nM | –
44 | COC(c1ccccc1)(c1ccccc1)c1ccccc1 [Compound 51] | – | 100% | 37% | – | 551 nM
45 | N#CC(c1ccccc1)(c1ccccc1)c1ccc([N+](=O)[O-])cc1 [Compound 52] | – | 94% | 93% | 1700 nM | 255 nM
46 | COC(=O)CC(c1ccccc1)(c1ccccc1)c1ccccc1 [Compound 53] | – | 98% | 74% | – | 101 nM
47 | Nc1ccc(C(O)(c2ccc(N)cc2)c2ccc(N)cc2)cc1 [Compound 54] | – | 17.4% | 99% | 200 nM | –
48 | CCOC(=O)C(C(=O)OCC)C(c1ccccc1)(c1ccccc1)c1ccccc1F [Compound 55] | – | 98% | 5% | – | 58 nM
49 | CON(C)C(=O)CC(c1ccccc1)(c1ccccc1)c1ccccc1 [Compound 56] | – | 91% | 99% | 3200 nM | 275 nM
50 | CCOC(=O)CNC(c1ccccc1)(c1ccccc1)c1ccccc1 [Compound 57] | – | 89% | 21% | – | 1510 nM
51 | COc1ccc(C(O)(c2ccccc2)c2ccc(OC)cc2)cc1 [Compound 58] | 247 nM | 99.6% | 99% | – | –
52 | Cc1ccc(C(O)(c2ccc(C)cc2)c2ccc(C)cc2)cc1 [Compound 59] | 489 nM | 100% | 98% | 3000 nM | –
53 | COc1ccc(C(O)(c2ccccc2)c2ccccc2)cc1 [Compound 60] | 304 nM | 98% | 31% | – | –
54 | OC(c1ccccc1)(c1ccccc1)c1cccc2ccccc12 [Compound 61] | 2370 nM | 85% | 99% | 1600 nM | –
55 | OCCC[CH2][Ge]([c]1ccccc1)([c]1ccccc1)[c]1ccccc1 [Compound 72] | 1080 nM | – | – | – | –
56 | c1ccc([Si](c2ccccc2)(c2ccccc2)c2cccs2)cc1 [Compound 76] | – | – | 84% | – | –
